Data: patent US20200017496A1 (priority 2017, published 2020)
Values after ≈ are worked out from the molar mass of the structure shown.

Key:
[1] = Hydrolysis kinetics in buffers at room temperature by 19F-NMR, 1 mg/ml (Method 9); type: physicochemical
Protocol: Method 9: Hydrolysis Kinetics in Buffers at Room Temperature by ^19F-NMR, 1 mg/ml (Table 9)
Samples were prepared by solubilizing the ester compound (1 mg) in 900 μL of D2O and 100 μL of adequate buffer (Citrate 100 mM pH 5, Phosphate 100 mM pH 6 and Phosphate 100 mM pH 7.4). After a short sonication to fasten solubilization, the hydrolysis curve of the esters was generated by measuring and comparing the ^19F-NMR signal integrations of both species (ester compound disappearing and the acid form AF1 appearing). T10 and T50, times for respectively 10% and 50% of ester hydrolysis, were determined by interpolation of the hydrolysis curves.

[2] = Hydrolysis kinetics in buffers at 37° C., 4 μg/ml (LC-MS, Method 8); type: physicochemical
Protocol: Method 8: Hydrolysis Kinetics in Buffers or Plasma Samples at 37° C., 4 μg/ml (Table 9)
Test compounds were prepared in DMSO at 0.8 mg/ml (relative to the acid AF1). To obtain a concentration of 4 μg/ml, one microliter of test compounds or AF1 was dissolved in 199 μl of buffer or blank plasma. For test compounds, plasma samples and/or buffer samples were kept at 37° C. during 2 h, and 20 μL of mixture were collected at 0 minutes (before heating to 37° C.), 5 minutes, 10 minutes, 20 minutes, 30 minutes, 45 minutes, 60 minutes and 120 minutes. For AF1, 20 μl of plasma samples and/or buffer samples were collected at 0 minutes. All plasma samples were protein precipitated using 3-25 fold volume of acetonitrile, shaken and centrifuged for 20 minutes at 15 000×g, diluted with a varying volume of deionized water. All buffer samples were diluted with a varying volume of deionized water/acetonitrile. The formation of AF1 from test compounds was quantified using LC-MS/MS.

[3] = Aqueous solubility by visual inspection (Method 12); conditions: for solubility: water, thermodynamic from solid

Row | SMILES | Hydrolysis at 1 mg/ml at room Temperature (NMR) T10 (10% degradation time) ([1]; Citrate 10 mM pH 5.0) [h] | Hydrolysis at 1 mg/ml at room Temperature (NMR) T50 (50% degradation time) ([1]; Citrate 10 mM pH 5.0) [h] | Hydrolysis at 4 μg/ml at 37° C. (LC-MS) T50 (50% degradation time) ([2]; Citrate 10 mM pH 5.0) [min] | Hydrolysis at 4 μg/ml at 37° C. (LC-MS) T50 (50% degradation time) ([2]; Phosphate 10 mM pH 6.0) [min] | Hydrolysis at 4 μg/ml at 37° C. (LC-MS) T50 (50% degradation time) ([2]; Phosphate 10 mM pH 7.4) [min] | solubility [3] [µg/mL] | Aqueous Solubility at room temperature in H2O ([3]; room temperature, H2O, visual inspection) | Hydrolysis at 1 mg/ml at room Temperature (NMR) T10 (10% degradation time) ([1]; Phosphate 10 mM pH 6.0) [h] | Hydrolysis at 1 mg/ml at room Temperature (NMR) T50 (50% degradation time) ([1]; Phosphate 10 mM pH 6.0) [h] | Hydrolysis at 1 mg/ml at room Temperature (NMR) T10 (10% degradation time) ([1]; Phosphate 10 mM pH 7.4) [h] | Hydrolysis at 1 mg/ml at room Temperature (NMR) T50 (50% degradation time) ([1]; Phosphate 10 mM pH 7.4) [h]
1 | CCOC(=O)C(F)(F)ON1C(=O)N2C[C@H]1CC[C@H]2C(N)=O [AF1-Et] | 0.15 | 1 | <1 | <1 | <1 | > 1000 | – | – | – | – | –
2 | NC(=O)[C@@H]1CC[C@@H]2CN1C(=O)N2OC(F)(F)C(=O)OC1C2CC3CC(C2)CC1C3 (stereo partly drawn) [Example 3, 2-adamantyl 2-[[(2S,5R)-2-carbamoyl-7-oxo-1,6-diazabicyclo[3.2.1]octan-6-yl]oxy]-2,2-difluoro-acetate] | – | – | – | – | – | – | Low solubility | – | – | – | –
3 | COCCOCC(C)(C)OC(=O)C(F)(F)ON1C(=O)N2C[C@H]1CC[C@H]2C(N)=O [Example 9] | 3.2 | 20 | – | – | – | 6900 (≈ 16.9 mM) | – | 2.3 | 17 | 0.35 | 2.6
4 | COCC(C)(COC)OC(=O)C(F)(F)ON1C(=O)N2C[C@H]1CC[C@H]2C(N)=O [Example 10, [2-methoxy-1-(methoxymethyl)-1-methyl-ethyl]2-[[(2S,5R)-2-carbamoyl-7-oxo-1,6-diazabicyclo[3.2.1]octan-6-yl]oxy]-2,2-difluoro-acetate] | 3.5 | 32 | – | – | – | 4500 (≈ 11.4 mM) | – | 1.5 | 16 | 0.2 | 1
5 | COCC1(OC(=O)C(F)(F)ON2C(=O)N3C[C@H]2CC[C@H]3C(N)=O)CCOCC1 [Example 11, [4-(methoxymethyl)tetrahydropyran-4-yl]2-[[(2S,5R)-2-carbamoyl-7-oxo-1,6-diazabicyclo[3.2.1]octan-6-yl]oxy]-2,2-difluoro-acetate] | 6.2 | >41 | – | – | – | 1300 (≈ 3.19 mM) | – | 2 | 16 | 0.25 | 1.3
6 | NC(=O)[C@@H]1CC[C@@H]2CN1C(=O)N2OC(F)(F)C(=O)OC1CCOCC1 [Example 12, tetrahydropyran-4-yl 2-[[(2S,5R)-2-carbamoyl-7-oxo-1,6-diazabicyclo[3.2.1]octan-6-yl]oxy]-2,2-difluoro-acetate] | 0.25 | 1.3 | <1 | <1 | <1 | 500 to 1000 (≈ 1.38 to 2.75 mM) | – | – | – | – | –
